Counter-ions that a name gives are not always drawn. Like-named read-outs stand apart in the source and are kept apart here.
Experiments:
[1] = target: T1, MMP-7FL (full length matrilysin) (Homo sapiens, UniProt P09237); assay: Thiopeptolide substrate hydrolysis assay, MMP-7FL; assay type: biochemical; conditions: HEPES pH 7.0, 22° C., read-out: IC50 (μM) Versus Certain MMPs: MMP-07 FL
T1 sequence (P09237 95-267): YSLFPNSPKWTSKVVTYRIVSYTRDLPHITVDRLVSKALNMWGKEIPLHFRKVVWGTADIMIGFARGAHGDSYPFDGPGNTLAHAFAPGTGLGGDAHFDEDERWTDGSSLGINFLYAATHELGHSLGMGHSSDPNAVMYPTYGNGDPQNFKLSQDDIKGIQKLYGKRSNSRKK
Excerpt: (§1) The invention compounds of Formula I have been evaluated in standard assays for their ability to inhibit the catalytic activity of various MMP enzymes.
(§2) Thiopeptolide substrates show virtually no decomposition or hydrolysis at or below neutral pH in the absence of a matrix metalloproteinase enzyme.
(§3) Several representative compounds have been evaluated for their ability to inhibit various matrix metalloproteinase enzymes.

[2] = target: T2, MMP-2FL (full length Gelatinase A) (Homo sapiens, UniProt P08253); assay: Thiopeptolide substrate hydrolysis assay, MMP-2FL; assay type: biochemical; conditions: HEPES pH 7.0, 22° C., read-out: IC50 (μM) Versus Certain MMPs: MMP-02 FL
T2 sequence (P08253 110-660): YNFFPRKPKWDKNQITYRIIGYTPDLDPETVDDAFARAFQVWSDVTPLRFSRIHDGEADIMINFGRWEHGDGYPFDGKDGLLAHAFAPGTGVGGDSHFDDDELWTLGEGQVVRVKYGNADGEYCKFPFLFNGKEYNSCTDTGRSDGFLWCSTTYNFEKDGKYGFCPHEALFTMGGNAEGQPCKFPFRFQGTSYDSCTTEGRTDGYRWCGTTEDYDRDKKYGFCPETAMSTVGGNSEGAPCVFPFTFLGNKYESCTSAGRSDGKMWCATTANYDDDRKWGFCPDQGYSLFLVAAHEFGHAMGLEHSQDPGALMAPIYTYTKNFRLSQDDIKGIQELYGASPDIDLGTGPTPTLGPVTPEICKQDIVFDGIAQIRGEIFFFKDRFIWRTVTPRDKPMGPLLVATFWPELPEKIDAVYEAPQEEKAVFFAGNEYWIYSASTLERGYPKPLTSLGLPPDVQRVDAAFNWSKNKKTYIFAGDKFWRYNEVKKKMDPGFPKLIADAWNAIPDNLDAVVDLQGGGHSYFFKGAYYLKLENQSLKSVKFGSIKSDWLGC
Excerpt: as §1, §2, §3

[3] = target: MMP-9FL (full length Gelatinase B) (Homo sapiens, UniProt P14780); assay: Thiopeptolide substrate hydrolysis assay, MMP-9FL; assay type: biochemical; conditions: HEPES pH 7.0, 22° C., read-out: IC50 (μM) Versus Certain MMPs: MMP-09 FL
Sequence of MMP-9FL (full length Gelatinase B) (P14780 94-707, species assumed): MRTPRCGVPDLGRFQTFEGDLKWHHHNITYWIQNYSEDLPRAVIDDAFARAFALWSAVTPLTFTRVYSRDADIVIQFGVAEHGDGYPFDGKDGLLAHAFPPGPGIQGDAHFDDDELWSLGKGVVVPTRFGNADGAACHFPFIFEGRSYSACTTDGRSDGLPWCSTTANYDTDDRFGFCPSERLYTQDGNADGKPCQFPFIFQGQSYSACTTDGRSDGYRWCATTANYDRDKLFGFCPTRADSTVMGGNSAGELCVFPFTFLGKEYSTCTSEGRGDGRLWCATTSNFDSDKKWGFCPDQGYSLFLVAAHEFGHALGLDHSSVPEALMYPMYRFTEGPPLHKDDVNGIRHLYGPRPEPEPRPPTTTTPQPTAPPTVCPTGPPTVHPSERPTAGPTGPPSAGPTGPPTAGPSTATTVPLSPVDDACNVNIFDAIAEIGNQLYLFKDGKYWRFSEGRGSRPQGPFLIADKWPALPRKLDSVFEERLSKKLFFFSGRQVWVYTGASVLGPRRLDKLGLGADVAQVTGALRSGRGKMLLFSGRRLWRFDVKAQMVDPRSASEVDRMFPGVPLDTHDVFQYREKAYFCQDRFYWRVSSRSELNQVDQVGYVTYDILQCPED
Excerpt: as §1, §2, §3

[4] = target: MMP-14CD (catalytic domain of MMP-14) (Homo sapiens, UniProt P50281); assay: Thiopeptolide substrate hydrolysis assay, MMP-14CD; assay type: biochemical; conditions: HEPES pH 7.0, 22° C., read-out: IC50 (μM) Versus Certain MMPs: MMP-14 CD
Excerpt: as §1, §2, §3

[5] = target: MMP-13CD (catalytic domain of collagenase 3) (Homo sapiens, UniProt P45452); assay: Thiopeptolide substrate hydrolysis assay, MMP-13CD; assay type: biochemical; conditions: thiopeptolide substrate, HEPES pH 7.0, 22° C.
Excerpt: as §2

[6] = read-out: IC50 (μM) Versus Certain MMPs: MMP-13 CD

| IC50 [1] [µM] | IC50 [2] [µM] | IC50 [3] [µM] | melting point | IC50 [4] [µM] | IC50 [5, 6] [µM] | IC50 ([5]; IC50 (μM) Versus Certain MMPs: MMP-13 CD) [µM] | SMILES |
| --- | --- | --- | --- | --- | --- | --- | --- |
| > 100 | > 100 | > 100 | 179 to 180 °C | > 100 |  |  | COC(=O)c1ccc(Cn2c(=O)c(C)c3sc(C(=O)NCc4ccc(F)cc4)cn3c2=O)cc1C [Example 68, 4-[2-(4-Fluoro-benzylcarbamoyl)-8-methyl-5,7-dioxo-7H-thiazolo[3,2-c]pyrimidin-6-ylmethyl]-2-methyl-benzoic acid methyl ester] |
| > 30 | > 30 | > 30 | > 220 °C | > 30 |  |  | Cc1c(=O)n(Cc2ccc(C#N)cc2)c(=O)n2cc(C(=O)NCc3ccc(F)cc3)sc12 [Example 107, 6-(4-Cyano-benzyl)-8-methyl-5,7-dioxo-6,7-dihydro-5H-thiazolo[3,2-c]pyrimidine-2-carboxylic acid 4-fluoro-benzylamide] |
|  |  |  | 152 to 153.5 °C |  | > 100 |  | O=c1cc2sccn2c(=O)n1Cc1ccc(Cl)cc1 [6-(4-Chlorobenzyl)-thiazolo[3,2-c]pyrimidine-5,7-dione] |
|  |  |  | 189 to 191 °C |  |  | 23 | Cc1c(=O)n(Cc2ccccc2)c(=O)n2cc(C(=O)NCc3ccc4[nH]ccc4c3)sc12 [Example 34, 6-Benzyl-8-methyl-5,7-dioxo-6,7-dihydro-5H-thiazolo[3,2-c]pyrimidine-2-carboxylic acid(1H-indol-5-ylmethyl)-amide] |
|  |  |  | 163 to 165 °C |  |  |  | Cc1c(=O)n(Cc2ccc(C(=O)OC(C)(C)C)cc2)c(=O)n2ccsc12 [Example 104, 4-(8-Methyl-5,7-dioxo-7H-thiazolo[3,2-c]pyrimidin-6-ylmethyl)-benzoic acid tert-butyl ester] |
| 26 | > 30 | > 30 | 176 to 178 °C | > 30 |  |  | COC(=O)c1ccc(Cn2c(=O)c(C)c3sc(C(=O)NCc4ccc(F)cc4)cn3c2=O)cc1Cl [Example 65, 2-Chloro-4-[2-(4-fluoro-benzylcarbamoyl)-8-methyl-5,7-dioxo-7H-thiazolo[3,2-c]pyrimidin-6-ylmethyl]-benzoic acid methyl ester] |
| > 30 | > 30 | > 30 | 180 to 182 °C | > 30 |  |  | Cc1c(=O)n(Cc2ccccc2)c(=O)n2cc(C(=O)NCc3ccc(Cl)c(Cl)c3)sc12 [Example 18, 6-Benzyl-8-methyl-5,7-dioxo-6,7-dihydro-5H-thiazolo[3,2-c]pyrimidine-2-carboxylic acid 3,4-dichlorobenzylamide] |
|  |  |  | > 210 °C |  |  |  | COc1ccc(CNC(=O)c2cn3c(=O)n(Cc4ccc(C(=O)O)cc4)c(=O)c(C)c3s2)cc1 [Example 55, 4-[2-(4-Methoxy-benzylcarbamoyl)-8-methyl-5,7-dioxo-7H-thiazolo[3,2-c]pyrimidin-6-ylmethyl]-benzoic acid] |
| 25 | > 30 | > 30 | 218 to 219 °C | > 100 |  |  | O=C(NCc1ccc(Cl)c(Cl)c1)c1cn2c(=O)n(Cc3ccc(Cl)cc3)c(=O)cc2s1 [Example 14, 6-(4-Chlorobenzyl)-5,7-dioxo-6,7-dihydro-5H-thiazolo[3,2-c]pyrimidine-2-carboxylic acid 3,4-dichlorobenzylamide] |
| > 30 | > 30 | > 100 | > 215 °C | > 100 |  |  | COC(=O)c1ccc(Cn2c(=O)c(C)c3sc(C(=O)NCc4ccc(F)cc4)cn3c2=O)cc1 [Example 106, 4-[2-(4-Fluoro-benzylcarbamoyl)-8-methyl-5,7-dioxo-7H-thiazolo[3,2-c]pyrimidin-6-ylmethyl]-benzoic acid methyl ester] |
| 27 | > 30 | > 30 | 209 to 211 °C | > 30 |  |  | COC(=O)c1ccc(Cn2c(=O)c(C)c3sc(C(=O)NCc4cccc(F)c4)cn3c2=O)cc1 [Example 105, 4-[2-(3-Fluoro-benzylcarbamoyl)-8-methyl-5,7-dioxo-7H-thiazolo[3,2-c]pyrimidin-6-ylmethyl]-benzoic acid methyl ester] |
|  |  |  | > 230 °C |  | > 100 |  | Cc1c(=O)[nH]c(=O)n2ccsc12 [Example 53, 8-Methyl-thiazolo[3,2-c]pyrimidine-5,7-dione] |
|  |  |  | 206 to 207 °C |  |  |  | COc1ccc(CNC(=O)c2cn3c(=O)n(Cc4ccc(Cl)c(Cl)c4)c(=O)cc3s2)cc1 [Example 102, 6-(3,4-Dichloro-benzyl)-5,7-dioxo-6,7-dihydro-5H-thiazolo[3,2-c]pyrimidine-2-carboxylic acid 4-methoxy-benzylamide] |
| > 100 | 65 | > 100 | 163 to 165 °C | > 100 | 0.0106 |  | COC(=O)c1ccc(Cn2c(=O)c(C)c3sc(C(=O)NCc4ccc(OC)cc4)cn3c2=O)cc1 [Example 103, 4-[2-(4-Methoxy-benzylcarbamoyl)-8-methyl-5,7-dioxo-7H-thiazolo[3,2-c]pyrimidin-6-ylmethyl]-benzoic acid methyl ester] |
| > 30 | > 30 | > 30 | 160 to 162 °C | > 30 |  |  | COc1ccc(CNC(=O)c2cn3c(=O)n(Cc4ccccc4)c(=O)c(C)c3s2)cc1 [Example 17, 6-Benzyl-8-methyl-5,7-dioxo-6,7-dihydro-5H-thiazolo[3,2-c]pyrimidine-2-carboxylic acid 4-methoxybenzylamide] |
| > 30 | > 30 | > 30 | 204 to 207 °C (dec.) | > 30 |  |  | O=C(NCc1ccccc1)c1cn2c(=O)n(C(=O)c3ccccc3)c(=O)cc2s1 [Example 11, 6-Benzoyl-5,7-dioxo-6,7-dihydro-5H-thiazolo[3,2-c]pyrimidine-2-carboxylic acid benzylamide] |
|  |  |  | > 210 °C |  |  |  | O=C(NCc1ccccc1)c1cn2c(=O)n(Cc3ccncc3)c(=O)cc2s1 (as salt: hydrochloride) (hydrate or solvate) [Example 15, 6-(4-Pyridylmethyl)-5,7-dioxo-6,7-dihydro-5H-thiazolo[3,2-c]pyrimidine-2-carboxylic acid benzylamide hydrochloride] |
| > 100 | > 100 | > 100 | > 220 °C | > 100 |  |  | O=C(NCc1ccccc1)c1cn2c(=O)n(Cc3ccc(Cl)cc3)c(=O)cc2s1 [Example 13, 6-(4-Chlorobenzyl)-5,7-dioxo-6,7-dihydro-5H-thiazolo[3,2-c]pyrimidine-2-carboxylic acid benzylamide] |
| 20 | > 100 | > 30 | 216 to 217 °C | > 30 | 0.293 |  | O=C(NCc1ccccc1)c1cn2c(=O)n(Cc3ccc(Cl)c(Cl)c3)c(=O)cc2s1 [Example 12, 6-(3,4-Dichlorobenzyl)-5,7-dioxo-6,7-dihydro-5H-thiazolo[3,2-c]pyrimidine-2-carboxylic acid benzylamide] |
| > 30 | > 100 | > 100 | 176 to 178 °C | > 30 |  |  | Cc1c(=O)n(Cc2ccccc2)c(=O)n2cc(C(=O)NCc3ccccc3)sc12 [Example 16, 6-Benzyl-8-methyl-5,7-dioxo-6,7-dihydro-5H-thiazolo[3,2-c]pyrimidine-2-carboxylic acid benzylamide] |
|  |  |  | > 205 °C |  |  |  | Cc1c(=O)[nH]c(=O)n2cc(C(=O)O)sc12 [Example 54, 8-Methyl-5,7-dioxo-6,7-dihydro-5H-thiazolo[3,2-c]pyrimidine-2-carboxylic acid] |
